Source: ChEMBL document CHEMBL1155303, “Multiple strategies for the preparation of a sulfur-35 labeled NPC1L1 radioligand” (Bioorg Med Chem Lett, 2009)

Key:
[1] = molecular target: T1, NPC1-like intracellular cholesterol transporter 1 (Homo sapiens, UniProt Q9UHC9); test: (§1) Displacement of [35S](2S,3S,4S,5R,6S)-6-(4-((2S,3R)-3-((S)-3-(4-fluorophenyl)-3-hydroxypropyl)-1-(4-(3-(methylsulfonamido)prop-1-ynyl)phenyl)-4-oxoazetidin-2-yl)phenoxy)-3,4,5-trihydroxytetrahydro-2H-pyran-2-carboxylic acid from recombinant human NPC1L1 expressed in HEK cells by single tube filtration assay; format: cell-based, HEK293
T1 sequence (Q9UHC9 whole entry): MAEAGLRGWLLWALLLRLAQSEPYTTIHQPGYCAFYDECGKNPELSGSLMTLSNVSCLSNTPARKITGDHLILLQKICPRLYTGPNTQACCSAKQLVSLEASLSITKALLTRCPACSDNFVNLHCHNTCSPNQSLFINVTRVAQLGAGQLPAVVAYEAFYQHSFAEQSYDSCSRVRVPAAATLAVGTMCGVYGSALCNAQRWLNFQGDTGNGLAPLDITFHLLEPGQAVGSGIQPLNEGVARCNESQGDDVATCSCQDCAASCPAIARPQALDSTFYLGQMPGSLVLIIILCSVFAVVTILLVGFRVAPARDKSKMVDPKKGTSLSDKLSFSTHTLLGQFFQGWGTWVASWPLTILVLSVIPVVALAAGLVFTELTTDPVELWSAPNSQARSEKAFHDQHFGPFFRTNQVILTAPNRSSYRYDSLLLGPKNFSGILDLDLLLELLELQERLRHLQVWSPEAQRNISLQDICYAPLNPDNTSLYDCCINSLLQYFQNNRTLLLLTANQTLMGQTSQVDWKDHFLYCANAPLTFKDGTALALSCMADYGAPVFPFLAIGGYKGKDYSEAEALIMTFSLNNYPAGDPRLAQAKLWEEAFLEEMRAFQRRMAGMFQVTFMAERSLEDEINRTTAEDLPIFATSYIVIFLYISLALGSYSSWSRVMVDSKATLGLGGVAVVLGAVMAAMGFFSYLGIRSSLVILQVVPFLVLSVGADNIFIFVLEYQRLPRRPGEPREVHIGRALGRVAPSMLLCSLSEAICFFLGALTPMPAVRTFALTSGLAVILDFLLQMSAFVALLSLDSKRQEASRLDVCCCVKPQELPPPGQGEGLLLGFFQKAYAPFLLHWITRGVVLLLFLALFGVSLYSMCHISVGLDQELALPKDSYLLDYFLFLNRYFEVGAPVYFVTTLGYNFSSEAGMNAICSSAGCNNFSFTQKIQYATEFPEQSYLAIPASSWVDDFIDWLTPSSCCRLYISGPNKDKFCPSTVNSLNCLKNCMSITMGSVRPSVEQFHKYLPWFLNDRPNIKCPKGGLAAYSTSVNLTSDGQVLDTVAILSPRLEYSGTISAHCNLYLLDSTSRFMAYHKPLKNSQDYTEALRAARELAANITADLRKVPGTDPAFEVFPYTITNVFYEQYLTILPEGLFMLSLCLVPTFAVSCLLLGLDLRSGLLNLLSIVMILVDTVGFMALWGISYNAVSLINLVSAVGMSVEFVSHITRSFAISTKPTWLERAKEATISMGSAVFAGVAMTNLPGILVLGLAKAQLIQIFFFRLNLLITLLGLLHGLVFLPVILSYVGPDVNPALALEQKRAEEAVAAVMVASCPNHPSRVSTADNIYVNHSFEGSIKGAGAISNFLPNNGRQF

[2] = molecular target: T2, NPC1-like intracellular cholesterol transporter 1 (Rattus norvegicus, UniProt Q6T3U3); test: as §1, with “rat” for “human”; format: cell-based, HEK293
T2 sequence (Q6T3U3 21-1331 limits assumed): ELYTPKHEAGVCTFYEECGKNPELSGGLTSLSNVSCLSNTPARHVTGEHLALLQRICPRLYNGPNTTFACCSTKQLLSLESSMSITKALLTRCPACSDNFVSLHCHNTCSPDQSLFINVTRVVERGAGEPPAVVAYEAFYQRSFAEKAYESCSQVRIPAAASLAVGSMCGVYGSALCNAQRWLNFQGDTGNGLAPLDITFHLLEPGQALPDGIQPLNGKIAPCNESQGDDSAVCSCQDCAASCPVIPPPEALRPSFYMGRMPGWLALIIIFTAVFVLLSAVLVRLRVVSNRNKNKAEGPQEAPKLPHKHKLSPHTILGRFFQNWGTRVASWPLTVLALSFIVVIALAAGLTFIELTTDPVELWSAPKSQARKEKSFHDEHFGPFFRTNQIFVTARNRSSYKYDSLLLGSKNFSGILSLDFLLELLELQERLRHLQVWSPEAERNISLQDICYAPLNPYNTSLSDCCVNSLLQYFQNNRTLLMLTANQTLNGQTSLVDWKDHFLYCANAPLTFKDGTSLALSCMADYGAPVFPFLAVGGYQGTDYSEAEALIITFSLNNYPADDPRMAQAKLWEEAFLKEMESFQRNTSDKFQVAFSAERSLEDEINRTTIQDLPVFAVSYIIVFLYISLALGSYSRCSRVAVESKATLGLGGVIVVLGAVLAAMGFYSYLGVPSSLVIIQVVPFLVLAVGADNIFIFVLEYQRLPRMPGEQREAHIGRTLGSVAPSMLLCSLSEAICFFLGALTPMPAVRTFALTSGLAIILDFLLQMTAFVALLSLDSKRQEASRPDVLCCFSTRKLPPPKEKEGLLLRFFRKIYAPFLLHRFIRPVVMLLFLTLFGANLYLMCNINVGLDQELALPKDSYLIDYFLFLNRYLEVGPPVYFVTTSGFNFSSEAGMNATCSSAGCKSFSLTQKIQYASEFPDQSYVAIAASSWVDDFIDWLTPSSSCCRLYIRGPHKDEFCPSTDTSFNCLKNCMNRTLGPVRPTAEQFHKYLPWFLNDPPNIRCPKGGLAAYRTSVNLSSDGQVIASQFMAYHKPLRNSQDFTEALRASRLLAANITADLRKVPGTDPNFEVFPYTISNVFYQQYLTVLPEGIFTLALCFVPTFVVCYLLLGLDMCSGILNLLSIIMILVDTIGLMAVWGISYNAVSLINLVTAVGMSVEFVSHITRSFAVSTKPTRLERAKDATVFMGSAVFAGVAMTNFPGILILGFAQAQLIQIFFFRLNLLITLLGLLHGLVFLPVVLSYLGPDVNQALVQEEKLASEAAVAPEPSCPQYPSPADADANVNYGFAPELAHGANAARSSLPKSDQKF

[3] = molecular target: T1, NPC1-like intracellular cholesterol transporter 1; test: as §1, with “from” for “from recombinant”, “human intestinal brush border membrane” for “human”, “NPC1L1” for “NPC1L1 expressed in HEK cells”
[4] = molecular target: T2, NPC1-like intracellular cholesterol transporter 1; test: as §1, with “rat intestinal brush border membrane” for “recombinant human”, “NPC1L1” for “NPC1L1 expressed in HEK cells”
[5] = molecular target: NPC1-like intracellular cholesterol transporter 1 (Mus musculus, UniProt Q6T3U4); test: as §1, with “mouse” for “human”; format: cell-based, HEK293
Chain of NPC1-like intracellular cholesterol transporter 1 (Mus musculus, UniProt Q6T3U4) (Q6T3U4 21-1333 limits assumed): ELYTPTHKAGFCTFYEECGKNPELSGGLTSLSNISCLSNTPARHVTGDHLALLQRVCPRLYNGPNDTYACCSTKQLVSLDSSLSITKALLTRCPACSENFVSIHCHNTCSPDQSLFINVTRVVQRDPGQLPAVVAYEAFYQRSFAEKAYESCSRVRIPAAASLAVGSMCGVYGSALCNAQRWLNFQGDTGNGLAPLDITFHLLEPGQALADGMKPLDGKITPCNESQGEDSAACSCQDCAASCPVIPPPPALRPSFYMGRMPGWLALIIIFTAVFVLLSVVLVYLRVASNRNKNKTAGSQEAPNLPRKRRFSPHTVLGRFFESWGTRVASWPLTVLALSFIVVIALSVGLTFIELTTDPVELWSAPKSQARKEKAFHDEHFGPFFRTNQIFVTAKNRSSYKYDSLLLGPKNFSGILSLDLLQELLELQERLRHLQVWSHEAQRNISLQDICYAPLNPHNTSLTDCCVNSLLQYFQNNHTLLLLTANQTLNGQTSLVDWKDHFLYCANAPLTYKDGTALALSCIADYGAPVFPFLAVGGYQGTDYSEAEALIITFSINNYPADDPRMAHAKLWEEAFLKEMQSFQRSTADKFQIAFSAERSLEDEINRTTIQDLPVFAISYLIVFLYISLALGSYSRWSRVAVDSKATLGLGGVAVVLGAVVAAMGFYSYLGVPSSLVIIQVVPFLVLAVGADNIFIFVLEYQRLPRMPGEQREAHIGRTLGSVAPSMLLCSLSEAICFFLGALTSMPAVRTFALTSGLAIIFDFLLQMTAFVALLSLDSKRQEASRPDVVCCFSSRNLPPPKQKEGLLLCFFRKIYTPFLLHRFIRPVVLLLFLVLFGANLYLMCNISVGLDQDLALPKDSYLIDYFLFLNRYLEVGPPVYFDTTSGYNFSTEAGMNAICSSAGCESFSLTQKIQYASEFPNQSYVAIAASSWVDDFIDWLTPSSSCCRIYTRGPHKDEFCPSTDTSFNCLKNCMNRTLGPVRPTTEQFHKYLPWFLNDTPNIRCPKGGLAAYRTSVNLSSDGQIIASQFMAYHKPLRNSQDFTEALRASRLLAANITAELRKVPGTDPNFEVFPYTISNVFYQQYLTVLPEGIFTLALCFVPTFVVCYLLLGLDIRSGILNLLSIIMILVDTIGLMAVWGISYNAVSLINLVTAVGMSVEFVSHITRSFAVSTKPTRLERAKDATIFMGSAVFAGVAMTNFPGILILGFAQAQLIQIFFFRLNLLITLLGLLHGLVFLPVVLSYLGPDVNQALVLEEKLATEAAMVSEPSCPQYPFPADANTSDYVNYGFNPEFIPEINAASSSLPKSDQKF

IC50 [1]: 4 nM
IC50 [2]: 4 nM
IC50 [3]: 4 nM
IC50 [4]: 4 nM
IC50 [5]: 44 nM
Compound: C[35S](=O)(=O)NCC#Cc1ccc(N2C(=O)[C@H](CC[C@H](O)c3ccc(F)cc3)[C@H]2c2ccc(O[C@@H]3O[C@H](C(=O)O)[C@@H](O)[C@H](O)[C@H]3O)cc2)cc1
